Reference: patent publication US5403824A, “Methods for the treatment of osteoporosis” (The Procter & Gamble Company, priority 1993, dated 1995)
Square brackets hold non-standard residues; d marks the D form. Peptide text beside a SMILES is read from it. dMet(O) = CS(=O)CC[C@@H](N)C(=O)O; Phe(ol) = N[C@H](CO)Cc1ccccc1

Experiments:
[1] = system: Rat osteoblast-like cells (ROS 17/2.8); assay: [3H]-thymidine incorporation, proliferation of osteoblast-like cells; format: cell-based; conditions: ROS 17/2.8, 18 hrs incubation, 2 hrs pulse
From the text: Stimulation of osteoblast-like cell proliferation can be measured according to several art-recognized in vitro models. One such model is described in European Patent Publication No. 384,731, by Rodan et al, published Aug. 29, 1990, which is incorporated herein by reference. (Applicants have modified this method by reducing regent volumes to one-quarter those described and by utilizing Dulbecco's Modified eagle's Medium (DMEM).) In this model, proliferation (division) of, for example, rat osteoblast-like cells (rat osteosarcoma (ROS) cells, rat calvaria cells, etc.) is observed by measuring the amount of radiolabeled thymidine ([^3 H]thymidine) incorporated by these cells. ([^3 H]thymidine is "incorporated" by cellular DNA being synthesized as a result of cell proliferation.) The greater the level of [^3 H]thymidine measured, the greater the amount of proliferation of the osteoblast cells.
More specifically, a test sample (comprised of a test compound and osteoblast-like cells) and a control sample (comprised of only osteoblast-like cells) are pulsed with [^3 H]thymidine. The amount of [^3 H]thymidine incorporated by the cells is measured using a direct beta counter.
Rat osteoblast-like cells (ROS 17/2.8) are plated at 4×10^3 cells/well in a 96-well plate in Dulbecco's Modified eagle's Medium supplemented with 2% (v/v) Fetal Bovine Serum, and incubated for 6 hrs. Control (serum-free) medium and test medium (test sample and serum-free medium) are then added to the cells and this combination is incubated for 18 hrs. The cells are then pulsed with [^3 H]-thymidine (1 μCi/well) for 2 hrs. The medium is then removed, the cells are harvested onto glass fibre filters and the amount of [^3 H]-thymidine (counts per minute per well) incorporated into DNA is then determined using a direct beta counter. Values for control groups are then compared to values for treated groups.
(§1) The compound H-Tyr-D-Ala-Gly-Phe-D-Leu-OH ("DADLE") is screened to determine whether it stimulates proliferation of osteoblast-like cells. […] The medium is then removed, the cells are harvested onto glass fibre filters, and the amount of ^3 H-thymidine (counts per minute per well) incorporated into DNA is determined using a direct beta counter. […]
as §1, with “Tyr-D-Cys(S-t-butylthioether)-Gly-Phe-Leu-Thr(O-t-butylether) ("BUBUC")” for “H-Tyr-D-Ala-Gly-Phe-D-Leu-OH ("DADLE")”

mu opioid receptor = mu opioid receptor (Cavia porcellus, UniProt A0ACM8Q262); assay: inhibition of [3H]DAGO binding, method of Goldstein et al.; design: species or system guinea pig; conditions: radioligand [3H]DAGO
mu opioid receptor, sequence (A0ACM8Q262 1-400): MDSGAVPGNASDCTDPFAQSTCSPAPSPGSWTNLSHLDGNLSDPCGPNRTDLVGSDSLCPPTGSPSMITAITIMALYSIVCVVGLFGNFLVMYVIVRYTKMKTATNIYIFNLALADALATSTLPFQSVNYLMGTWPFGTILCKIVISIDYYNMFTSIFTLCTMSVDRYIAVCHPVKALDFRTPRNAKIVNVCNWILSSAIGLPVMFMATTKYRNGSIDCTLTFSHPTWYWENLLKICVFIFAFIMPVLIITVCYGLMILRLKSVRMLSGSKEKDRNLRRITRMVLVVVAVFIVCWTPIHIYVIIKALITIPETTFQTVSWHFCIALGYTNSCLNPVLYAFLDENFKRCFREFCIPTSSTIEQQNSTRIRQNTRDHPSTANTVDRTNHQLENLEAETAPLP
From the text: Affinity for mu opioid receptors can be measured by any of several art-recognized in vitro models. One such model is described by A. Goldstein et al., "Multiple Opioid Receptors: Ligand Selectivity Profiles and Binding Site Signatures", 36 […] 265-272 (1989), which is incorporated herein by reference. According to this model, a test compound is screened for its ability to inhibit binding of a mu-selective radiolabeled ligand ("mu-selective radiolabeled ligand" refers to a radiolabeled compound that is known to have selective affinity for mu opioid receptors) to mu opioid receptor binding sites. More specifically, this in vitro model compares test samples (comprising a mu-selective radiolabeled ligand ("hot ligand"); the non-radiolabeled equivalent to the "hot ligand" ("cold ligand"); test compound at varying concentrations in each test sample; and mu opiate receptor material) and a control sample (comprising hot ligand; cold ligand; and mu opiate receptor material).
Following the protocol set forth by Goldstein et al., the samples are assayed for relative radioactivity.
In assessing a compound's in vitro affinity for mu opioid receptors according the method described by Goldstein et al., the mu-selective radiolabeled ligand (i.e., "hot ligand") is preferrably [^3 H]Tyr-D-Ala-Gly-N-methyl-Phe-Gly(ol) ("[^3 ]DAGO" or "hot DAGO"). […]

[2] = system: human subject with postmenopausal osteoporosis or low bone mass; assay: treatment of human subject with osteoporosis, vertebral density by dual-energy photon absorptiometry; format: in vivo; conditions: 30 mg intravenously daily (substitutes at comparable levels), 28 days active / 28 days calcium, two years
Protocol: A human subject weighing about 60 kg (132 lbs), suffering from postmenopausal osteoporosis, is treated by a method of this invention. Specifically, for two years, the enkephalin-degrading enzyme inhibitor DL-3-mercapto-2-benzylpropanoylglycine is administered orally, in a cyclical regimen, where each cycle consists of an active period of 28 days during which a tablet containing 160 mg of said inhibitor is administered each day, followed by a non-active period of 28 days during which the subject receives a daily supplement of calcium (1,000 mg/day), with repeat of cycle.
A human subject weighing about 60 kg (132 lbs), suffering from postmenopausal osteoporosis, is treated by a method of this invention. Specifically, for two years, the compound H-Tyr-D-Ala-Gly-Phe-D-Leu-OH ("DADLE") is administered to the subject, in a cyclical regimen, where each cycle consists of an active period of 28 days during which a solution containing 30 mg of DADLE is administered intravenously every day, followed by a non-active period of 28 days during which the patient receives a daily supplement of calcium (1,000 mg/day), with repeat of cycle.
(§2) A human subject weighing about 60 kg (132 lbs), suffering from postmenopausal osteoporosis, is treated by a method of this invention. Specifically, for two years, an enkephalin of the formula Tyr-D-Cys(S-t-butylthioether)-Gly-Phe-Leu-Thr(O-t-butylether) ("BUBUC") is administered to the subject, in a cyclical regimen, where each cycle consists of an active period of 28 days during which a solution containing 30 mg of BUBUC is intravenously administered each day, followed by a non-active period of 28 days during which the patient receives a daily supplement of calcium (1,000 mg/day), with repeat of cycle.
as §2, with “years, the” for “years, an”, “enkephalin secretagogue Tyr-Arg^1,” for “enkephalin of the formula Tyr-D-Cys(S-t-butylthioether)-Gly-Phe-Leu-Thr(O-t-butylether) ("BUBUC")”, “of Tyr-Arg” for “of BUBUC”, “the subject” for “the patient”, “cycle. […]” for “cycle.”
A human subject weighing about 60 kg (132 lbs), suffering from postmenopausal osteoporosis, is treated by a method of this invention. Specifically, each day for five years, the subject is administered 3 tablets, comprised as follows.
A human subject weighing about 60 kg (132 lbs) is evaluated approximately four years after spontaneous menopause, and is found to have low bone mass. The subject is then treated by a method of this invention to treat osteoporosis. Specifically, once each month for five years, the subject is administered, via intravenous injection, 5 ml of a solution comprised as follows.

CC(C)C[C@@H](NC(=O)[C@H](Cc1ccccc1)NC(=O)CNC(=O)[C@@H](C)NC(=O)[C@@H](N)Cc1ccc(O)cc1)C(=O)O [DADLE, H-Tyr-D-Ala-Gly-Phe-D-Leu-OH]
[3H]-thymidine incorporation (proliferation) vs control [1]: significantly stimulated proliferation of the osteoblast-like cells | in vitro mu opioid receptor affinity (IC50 ≤1000 times the IC50 of non-radiolabeled DAGO) (mu opioid receptor): significant in vitro mu opioid receptor affinity | density of vertebrae / bone mass [2]: an increase in bone mass | density of vertebrae / bone mass ([2]; listed as H-Tyr-D-Ala-Gly-Phe-D-Leu): substantially similar results

C[C@@H](NC(=O)[C@@H](N)Cc1ccc(O)cc1)C(=O)NCC(=O)N(C)[C@@H](Cc1ccccc1)C(=O)N[C@H](CO)CC[S+](C)[O-] (stereo partly drawn) [H-Tyr-D-Ala-Gly-N-methyl-Phe-Met(sulfoxide)(ol)]
density of vertebrae / bone mass [2]: substantially similar results

CC(C)C[C@H](NC(=O)[C@H](Cc1ccccc1)NC(=O)CNC(=O)[C@@H](C)NC(=O)[C@@H](N)Cc1ccc(O)cc1)C(N)=O [H-Tyr-D-Ala-Gly-Phe-Leu-NH2]
density of vertebrae / bone mass [2]: substantially similar results

CSCC[C@H](NC(=O)[C@H](Cc1ccccc1)NC(=O)CNC(=O)[C@@H](C)NC(=O)[C@@H](N)Cc1ccc(O)cc1)C(N)=O [H-Tyr-D-Ala-Gly-Phe-Met-NH2]
density of vertebrae / bone mass [2]: substantially similar results

CSCC[C@H](NC(=O)[C@H](Cc1ccccc1)NC(=O)[C@@H](C)NC(=O)[C@@H](N)Cc1ccc(O)cc1)C(N)=O [H-Tyr-D-Ala-Phe-Met-NH2] (H-Y[dA]FM-NH2)
density of vertebrae / bone mass [2]: substantially similar results

C[S+]([O-])CC[C@@H](NC(=O)[C@@H](N)Cc1ccc(O)cc1)C(=O)NCC(=O)N[C@H](CO)Cc1ccccc1 (stereo partly drawn) [H-Tyr-D-Met(O)-Gly-Phe(ol)] (H-Y[dMet(O)]G[Phe(ol)])
density of vertebrae / bone mass [2]: substantially similar results

CSCC[C@@H](NC(=O)[C@@H](N)Cc1ccc(O)cc1)C(=O)NCC(=O)N[C@@H](Cc1ccccc1)C(=O)N1CCC[C@H]1C(N)=O [H-Tyr-D-Met-Gly-Phe-Pro-NH2] (H-Y[dM]GFP-NH2)
density of vertebrae / bone mass [2]: substantially similar results

CC(C)C[C@H](NC(=O)[C@H](Cc1ccccc1)NC(=O)CNC(=O)[C@@H](COC(C)(C)C)NC(=O)[C@@H](N)Cc1ccc(O)cc1)C(=O)N[C@H](C(=O)O)[C@@H](C)OC(C)(C)C [H-Tyr-D-Ser(O-t-butylether)-Gly-Phe-Leu-Thr(O-t-butylether)]
density of vertebrae / bone mass [2]: substantially similar results

CC(C)C[C@H](NC(=O)[C@H](Cc1ccccc1)NC(=O)CNC(=O)[C@@H](COC(C)(C)C)NC(=O)[C@@H](N)Cc1ccc(O)cc1)C(=O)N[C@H](C(=O)O)[C@@H](C)O [H-Tyr-D-Ser(O-t-butylether)-Gly-Phe-Leu-Thr]
density of vertebrae / bone mass [2]: substantially similar results

H-(2,6-dimethyl-Try)-D-Ala-NH-phenylpropyl
density of vertebrae / bone mass [2]: substantially similar results

H-Tyr-D-Pen-Gly-Phe-Pen
density of vertebrae / bone mass [2]: substantially similar results
